The subject of the data set is rodent carcinogenicity bioassays, tumor incidence. The experiment in a line: CCRIS carcinogenicity studies. Summed up:
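NCI-built, expert-reviewed records of carcinogenicity and related test outcomes (mutagenicity, tumor promotion/inhibition) compiled from published and report sources, historical span 1985-2011, not updated.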

The source made the active and inactive calls. How the calls were made is not given here.

Regarding `CC1(C)C(C=C(Cl)Cl)C1C(=O)OC(C#N)c1ccc(F)c(Oc2ccccc2)c1` (stereo not given), the carcinogen call by setting is: (Species: Mouse, Strain/Sex: CD-1/Female (56/dose), Route: Oral, Dose: 0, 200, 750, 1,600 ppm (0; 38.4; 140/6; 309.7 mg/kg/day) of 94-95% pure cyfluthrin in feed for 18 mo, Dose: 0, 200, 750, 1,600 ppm (0; 38.4; 140/6; 309.7 mg/kg/day) of 94-95% pure cyfluthrin in feed for 18 mo) “inactive; negative”; (Species: Mouse, Strain/Sex: CD-1/Male (56/dose), Route: Oral, Dose: 0, 200, 750, 1,400 ppm (0; 31.9; 114.8; 232.7 mg/kg/day) of 94-95% pure cyfluthrin in feed for 18 mo, Dose: 0, 200, 750, 1,400 ppm (0; 31.9; 114.8; 232.7 mg/kg/day) of 94-95% pure cyfluthrin in feed for 18 mo) “inactive; negative”; (Species: Rat, Strain/Sex: Fisher 344/Female (55/dose), Route: Oral, Dose: 0, 50, 225, 450 ppm (3.3; 14.4; 28.3 mg/kg/day) of 93.9-95.1% pure cyfluthrin in feed for 2 yr, Dose: 0, 50, 225, 450 ppm (3.3; 14.4; 28.3 mg/kg/day) of 93.9-95.1% pure cyfluthrin in feed for 2 yr) “inactive; negative”; (Species: Rat, Strain/Sex: Fisher 344/Male (55/dose), Route: Oral, Dose: 0, 50, 225, 450 ppm (2.6; 11.6; 22.8 mg/kg/day) of 93.9-95.1% pure cyfluthrin in feed for 2 yr, Dose: 0, 50, 225, 450 ppm (2.6; 11.6; 22.8 mg/kg/day) of 93.9-95.1% pure cyfluthrin in feed for 2 yr) “inactive; negative”.
Turning to `O=S(=O)(O)NC1CCCCC1`, the carcinogen call (Species: MONKEY, Strain/Sex: CYNOMOLGUS, RHESUS, AFRICAN GREEN/MALE, FEMALE, Route: ORAL, Dose: 0, 100, 500 MG/KG IN DIET FOR 24 YR (STUDY DURATION: 24 YR), Dose: 0, 100, 500 MG/KG IN DIET FOR 24 YR (STUDY DURATION: 24 YR)) is “inactive; negative”; the carcinogen call (Species: RAT, Strain/Sex: ALBINO/MALE,FEMALE, Route: SUBCUTANEOUS, Dose: 5, 15% IN AQ SOLN 3/WK FOR 85 OR 107 WK, Tumor Site: Type of Lesion: INJECTION SITE: FIBROSARCOMA) was “active; positive”; the carcinogen call (Species: RAT, Strain/Sex: SPRAGUE-DAWLEY/MALE,FEMALE, Route: ORAL, Dose: 2, 5% IN DIET PRENATALLY AND FOR LIFE) was “inactive; negative”.
With `Nc1ccc(N)c(Cl)c1`, the carcinogen call runs as follows: (Species: MOUSE, Strain/Sex: B6C3F1/FEMALE, Route: ORAL, Dose: 0, 0.3, 0.6% OF DIET, Dose: 0, 0.3, 0.6% OF DIET) “inactive; negative”; (Species: MOUSE, Strain/Sex: B6C3F1/MALE, Route: ORAL, Dose: 0, 0.3, 0.6% OF DIET, Dose: 0, 0.3, 0.6% OF DIET) “inactive; negative”; (Species: RAT, Strain/Sex: F344/FEMALE, Route: ORAL, Dose: 0, 0.15, 0.30% OF DIET, Dose: 0, 0.15, 0.30% OF DIET) “inactive; negative”; (Species: RAT, Strain/Sex: F344/MALE, Route: ORAL, Dose: 0, 0.15, 0.30% OF DIET, Dose: 0, 0.15, 0.30% OF DIET) “inactive; negative”.
For the compound `NC(=O)N/N=C/c1ccc([N+](=O)[O-])o1`, the carcinogen call (Species: MOUSE, Strain/Sex: B6C3F1/FEMALE, Route: ORAL, Dose: 0, 150, 310 PPM IN DIET (STUDY DURATION: 2 YR), Dose: 0, 150, 310 PPM IN DIET (STUDY DURATION: 2 YR), Tumor Site: Type of Lesion: OVARIES: GRANULOSA CELL TUMOR) is “active; positive”; the carcinogen call (Species: MOUSE, Strain/Sex: B6C3F1/FEMALE, Route: ORAL, Dose: 0, 150, 310 PPM IN DIET FOR 103 WK (STUDY DURATION: 105 WK), Dose: 0, 150, 310 PPM IN DIET FOR 103 WK (STUDY DURATION: 105 WK), Tumor Site: Type of Lesion: OVARY: GRANULOSA CELL TUMOR, OVARY: GRANULOSA CELL TUMOR OR LUTEOMA;OVARY: MIXED TUMOR,BENIGN, OVARY: TUBULAR CELL ADENO, Tumor Site: Type of Lesion: OVARY: GRANULOSA CELL TUMOR, OVARY: GRANULOSA CELL TUMOR OR LUTEOMA;OVARY: MIXED TUMOR,BENIGN, OVARY: TUBULAR CELL ADENO) was “active; positive”; the carcinogen call (Species: MOUSE, Strain/Sex: B6C3F1/MALE, Route: ORAL, Dose: 0, 150, 310 PPM IN DIET (STUDY DURATION: 2 YR), Dose: 0, 150, 310 PPM IN DIET (STUDY DURATION: 2 YR)) was “inactive; negative”; the carcinogen call (Species: MOUSE, Strain/Sex: B6C3F1/MALE, Route: ORAL, Dose: 0, 150, 310 PPM IN DIET FOR 103 WK (STUDY DURATION: 105 WK), Dose: 0, 150, 310 PPM IN DIET FOR 103 WK (STUDY DURATION: 105 WK)) was “inactive; negative”; the carcinogen call (Species: MOUSE, Strain/Sex: ICR/MALE, FEMALE, Route: SUBCUTANEOUS, Dose: 0, 75 UG/G ONCE WITHIN 12 HR OF BIRTH AND ONCE ON DAYS 7,14 AND 21 OF AGE (STUDY DURATION: 32 WK), Tumor Site: Type of Lesion: LUNG: PAPILLARY ADENOMA) was “active; positive”; the carcinogen call (Species: MOUSE, Strain/Sex: ICR/MALE, FEMALE, Route: TRANSPLACENTAL, Dose: 0, 75 UG/G ADMINISTERED SUBCUTANEOUSLY TO MOTHERS ON DAYS 13, 15 AND 17 OF GESTATION (STUDY DURATION: 33 WK)) is “inactive; negative”. Further, the carcinogen call is, setting by setting: (Species: RAT, Strain/Sex: F344/FEMALE, Route: ORAL, Dose: 0, 310, 620 PPM IN DIET FOR 103 WK (STUDY DURATION: 105 WK), Dose: 0, 310, 620 PPM IN DIET FOR 103 WK (STUDY DURATION: 105 WK), Tumor Site: Type of Lesion: MAMMARY GLAND: FIBROADENOMA) “active; positive”; (Species: RAT, Strain/Sex: F344/MALE, Route: ORAL, Dose: 0, 310, 620 PPM IN DIET FOR 103 WK (STUDY DURATION: 105 WK), Dose: 0, 310, 620 PPM IN DIET FOR 103 WK (STUDY DURATION: 105 WK), Tumor Site: Type of Lesion: SEBACEOUS GLAND: ADENOMA, SKIN: TRICHOEPITHELIOMA, TUNICA VAGINALIS: MESOTHELIOMA, PREPUTIAL GLAND: ADENOMA, CARCINOMA, Tumor Site: Type of Lesion: SEBACEOUS GLAND: ADENOMA, SKIN: TRICHOEPITHELIOMA, TUNICA VAGINALIS: MESOTHELIOMA, PREPUTIAL GLAND: ADENOMA, CARCINOMA) “equivocal”; (Species: RAT, Strain/Sex: F344 INBRED/FEMALE, Route: ORAL, Dose: 0, 310, 620 PPM IN DIET (STUDY DURATION: 2 YR), Dose: 0, 310, 620 PPM IN DIET (STUDY DURATION: 2 YR), Tumor Site: Type of Lesion: MAMMARY GLAND: FIBROADENOMA) “active; positive”.
As to `NC(=O)NC1NC(=O)NC1=O` (stereo not given), the carcinogen call was “inactive; negative” (Species: RAT, Strain/Sex: F344/FEMALE, Route: ORAL, Dose: 0, 2000 PPM IN DIET FOR 106 WK (STUDY DURATION: 130 WK)) and “inactive; negative” (Species: RAT, Strain/Sex: F344/MALE, Route: ORAL, Dose: 0, 2000 PPM IN DIET FOR 106 WK (STUDY DURATION: 130 WK)).
For the compound `CCNc1nc(Cl)nc(NC(C)(C)C#N)n1`, the carcinogen call reads like this: (Species: Mouse, Strain/Sex: CD/Female (50 per group; 100 per group for controls), Route: Oral, Dose: 0, 10, 25, 1,000 ppm of 98% pure cyanazine in feed for two yr, Dose: 0, 10, 25, 1,000 ppm of 98% pure cyanazine in feed for two yr) “inactive; negative”; (Species: Mouse, Strain/Sex: CD/Male (50 per group; 100 per group for controls), Route: Oral, Dose: 0, 10, 25, 1,000 ppm of 98% pure cyanazine in feed for two yr, Dose: 0, 10, 25, 1,000 ppm of 98% pure cyanazine in feed for two yr) “inactive; negative”; (Species: RAT, Strain/Sex: CRL:CD BR/FEMALE, Route: ORAL, Dose: 0, 1, 5, 25, 50 PPM FOR 104 WK (STUDY DURATION: 104 WK), Dose: 0, 1, 5, 25, 50 PPM FOR 104 WK (STUDY DURATION: 104 WK)) “inactive; negative”.
As to `Oc1cc(O)c2c(c1)O[C@H](c1ccc(O)c(O)c1)[C@@H](O)C2`, the carcinogen call reads like this: (Species: RAT, Strain/Sex: F344/FEMALE, Route: ORAL, Dose: 0, 2% IN DIET FOR 104 WK (STUDY DURATION: 104 WK), Tumor Site: Type of Lesion: GLANDULAR STOMACH: ADENOCARCINOMA) “active; positive”; (Species: RAT, Strain/Sex: F344/MALE, Route: ORAL, Dose: 0, 2% IN DIET FOR 104 WK (STUDY DURATION: 104 WK), Tumor Site: Type of Lesion: GLANDULAR STOMACH: ADENOCARCINOMA) “active; positive”.
As for `O=C1c2ccccc2C(=O)c2ccccc21`, the carcinogen call by setting is: (Species: MOUSE, Strain/Sex: B6C3F1/MALE, Route: DIET, Dose: 0, 833, 2500, 7500 PPM FOR 2 YR (STUDY DURATION: 2 YRS), Dose: 0, 833, 2500, 7500 PPM FOR 2 YR (STUDY DURATION: 2 YRS), Tumor Site: Type of Lesion: LIVER: HEPATOCELLULAR ADENOMA, CARCINOMA OR HEPATOBLASTOMA) “active; positive”; (Species: RAT, Strain/Sex: F344/N/MALE, Route: DIET, Dose: 0, 469, 938, 1875, 3750 PPM FOR 2 YRS (STUDY DURATION: 2YRS), Dose: 0, 469, 938, 1875, 3750 PPM FOR 2 YRS (STUDY DURATION: 2YRS), Tumor Site: Type of Lesion: KIDNEY: RENAL TUBULE ADENOMA OR CARCINOMA, LIVER: HEPATOCELLULAR ADENOMA) “active; positive”; (Species: RAT, Strain/Sex: F344/N/MALE, Route: DIET, Dose: 0, 469, 938, 1875, 3750 PPM FOR 2 YRS (STUDY DURATION: 2YRS), Dose: 0, 469, 938, 1875, 3750 PPM FOR 2 YRS (STUDY DURATION: 2YRS), Tumor Site: Type of Lesion: KIDNEY: RENAL TUBULE ADENOMA, BLADDER: PAPILLOMA) “active; positive; no true dose response, p values = 0.01 in these 2 cases; all others no”.
